Results from patent publication US11169138B2, “Nanopores with internal protein adaptors” (priority 2015, dated 2021).

Legend:
[1] = target: T1, AlkB-Fe^++ (E. coli AlkB demethylase) (Escherichia coli, UniProt P05050); test: Ligand binding to AlkB-Fe++ confined inside ClyA-AS nanopore, single-channel ionic current recording
T1 construct: made in house; host or cells: E. cloni EXPRESS BL21(DE3) E. coli
T1 sequence (P05050 with tags, fused parts or gaps): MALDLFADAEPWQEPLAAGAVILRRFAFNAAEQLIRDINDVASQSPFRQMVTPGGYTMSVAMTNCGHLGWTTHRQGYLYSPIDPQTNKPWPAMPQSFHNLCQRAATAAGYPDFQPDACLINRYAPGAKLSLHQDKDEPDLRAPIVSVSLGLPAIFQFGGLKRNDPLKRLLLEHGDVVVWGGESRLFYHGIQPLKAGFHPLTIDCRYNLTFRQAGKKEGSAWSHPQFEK
Experimental: (§1) The applied potential refers to the potential of the trans electrode. ClyA-AS nanopores were inserted into lipid bilayers from the cis compartment, which was connected to the ground electrode. The two compartments were separated by a 25 μm thick polytetrafluoroethylene film (Goodfellow Cambridge Limited) containing an orifice of ˜100 μm in diameter. The aperture was pretreated with ˜5 μl of 10% hexadecane in pentane and a bilayer was formed by the addition of ˜10 μL of 1,2-diphytanoyl-sn-glycero-3-phosphocholine (DPhPC) in pentane (10 mg/mL) to both electrophysiology chambers. Typically, the addition of 0.01-0.1 ng of oligomeric ClyA-AS to the cis compartment (0.5 mL) was sufficient to obtain a single channel. […] Electrical recordings were carried out in 150 mM NaCl, 15 mM Tris.HCl pH 8.0 (AlkB experiments) or 150 mM NaCl, 15 mM Tris.HCl pH 7.5 (DHFR experiments). The temperature of the recording chamber was maintained at 28° C. by water circulating through a metal case in direct contact with the bottom and sides of the chamber.
(§2) Electrical signals from planar bilayer recordings were amplified using an Axopatch 200B patch clamp amplifier (Axon Instruments) and digitized with a Digidata 1440 A/D converter (Axon Instruments). Data were recorded by using the Clampex 10.4 software (Molecular Devices) and the subsequent analysis was carried out with the Clampfit software (Molecular Devices). Electrical recordings were performed in 150 mM NaCl, 15 mM Tris.HCl pH 8.0 (AlkB) or pH 7.5 (DHFR) by applying a 2 kHz low-pass Bessel filter and a 10 kHz sampling rate. For further analysis traces were filtered digitally with a Bessel (8-pole) low-pass filter with a 50 Hz cut-off. Residual current values (IRES%) were calculated from blocked pore current values (IB) and open pore current values (IO) as IRES %=100*IB/IO. IB and IO were determined from Gaussian fits to all point current histograms (0.05 pA bin size) for at least 15 individual protein blockades. ΔIRES % values were calculated from IRES % using propagation of errors.
(§3) Current transitions from level 1 were analyzed with the “single-channel search” function in Clampfit. The detection threshold to collect the ligand-induced events for AlkB was set to 4 pA and events shorter than 10 ms were ignored. […] The resulting event dwell times (toff) and the time between events (ton) were binned together as cumulative distributions and fitted to a single exponential to retrieve the ligand-induced lifetimes (τoff) and the ligand-induced event frequencies (f=1/τon). The process of event collection was monitored manually. For AlkB, final values of τon and τoff were based on average values derived from at least 3 single channel experiments at each concentration. Each experiment analysed more than 8 AlkB blockades. At the low ligand concentrations (0.2 mM) about 100 ligand-binding events were measured. Otherwise more than 150 events were collected. […] Subsequently, the ton values were binned together as cumulative distributions and fitted to a single exponential fit to retrieve characteristic τon values. The values for koff represented in FIG. 2b and FIG. 4b were determined by taking the average±standard deviations of 1/toff of at least 3 single channel experiments. The values of the association rate constants (kon) were determined from the slope of the linear regression curves calculated from the dependency of the event frequencies (f=1/τon) on the ligand concentration (OriginLab, FIGS. 2b and 4b). Graphs were made with Origin (OriginLab Corporation) or Clampfit software (Molecular Devices).
9, 872-877; Bleijlevens, B. et al. (2012) Biochem. 2012, 51, 3334-3341].

DHFRtag:MTX = target: T2, DHFRtag:MTX (Escherichia coli, UniProt P0ABQ4, C152S/C85A); test: Ligand binding to DHFRtag:MTX complex confined inside ClyA-AS nanopore, single-channel recording; set-up: species or system E. coli
T2 construct: Met-Ala-Ser-Ala (N); made in house; host or cells: E. cloni EXPRESS BL21(DE3) E. coli
T2 sequence (P0ABQ4 1-159 C85A/C152S): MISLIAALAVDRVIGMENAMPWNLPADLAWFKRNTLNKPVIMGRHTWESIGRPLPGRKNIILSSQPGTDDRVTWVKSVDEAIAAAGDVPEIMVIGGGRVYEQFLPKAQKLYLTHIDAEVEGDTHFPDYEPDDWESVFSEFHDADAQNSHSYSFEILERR
Experimental: as §1, §2, §3

SBD1 = SBD1 (Lactococcus lactis, UniProt Q9CES5); test: Asparagine binding to SBD1 inside type I ClyA-AS nanopore
Experimental: The interaction of SBD1 with asparagine was sampled using type I ClyA-AS nanopores. ClyA-AS (C87A/L99Q/E103G/F166Y/I203V/C285S/K294R/H307Y). In 150 mM NaCl and 15 mM Tris-HCl (pH 7.5), the addition of 74 nM of SBD1 to the cis compartment of Type I ClyA-AS induced transient current blockades at negative applied potentials (trans). […] Every 3.5±0.1 s^−1 (mean±S.E., n=212) the current switched to Level II (Ires %=66.8±0.4%, N=5) with a lifetime of 109±1 ms (mean±S.E., n=340). The protein blockades released spontaneously after 4.2±1.8 s (mean±S.E., n=291).
The dissociation constant was determined by titrating the substrate and plotting the relative closed population (CL/(O+CL)), determined from the area of the all point current histogram, versus the concentration. […] The closing and opening rate constants were determined from the inverse of the open and closed state lifetimes respectively and were plotted versus the asparagine concentration. The closing rate was linearly dependent on the substrate concentration and the slope of the linear fit gave the kclosing=1.2×10^7 s^−1 M^−1.

Type I ClyA-AS nanopore = test: Current blockades from capture of protein adaptors by Type I ClyA-AS nanopore; set-up: species or system S. Typhi; conditions: ~4 nM cis, −60 mV
Experimental: The applied potential refers to the potential of the trans electrode. ClyA-AS nanopores were inserted into lipid bilayers from the cis compartment, which was connected to the ground electrode. The two compartments were separated by a 25 μm thick polytetrafluoroethylene film (Goodfellow Cambridge Limited) containing an orifice of ˜100 μm in diameter. The aperture was pretreated with ˜5 μl of 10% hexadecane in pentane and a bilayer was formed by the addition of ˜10 μL of 1,2-diphytanoyl-sn-glycero-3-phosphocholine (DPhPC) in pentane (10 mg/mL) to both electrophysiology chambers. […]
as §2, with “Electrical recordings were performed in 150 mM NaCl, 15 mM Tris.HCl pH 8.0 (AlkB) or pH 7.5 (DHFR) by applying a 2 kHz low-pass Bessel filter and a 10 kHz sampling rate. For further analysis traces were filtered digitally with a Bessel (8-pole) low-pass filter with a 50 Hz cut-off.” left out

Q: What does the source list for `O=C(O)CCC(=O)O` [SUC, succinate]?
A: L2B ΔIRES % (ligand-induced current enhancement from L2) ([1]; −60 mV, 150 mM NaCl, 15 mM Tris HCl pH 8.0, 28° C., ligand cis): +2.1 ± 1.0%; mean duration (toff) of ligand-induced events ([1]; −60 mV, ligand cis): 61 ± 11 ms; koff −60 mV ([1]; −60 mV, pH 8.0, 28° C.): 16.6 ± 2.6 s⁻¹; kon −60 mV ([1]; −60 mV, pH 8.0, 28° C., slope of event frequency vs concentration): 9.2 ± 1.3 × 10^2 s^−1 M^−1

Q: Which “DHFRtag:MTX blockades not responding to the ligand” value (DHFRtag:MTX; NADP+ added in trans) does the source give for `NC(=O)c1ccc[n+]([C@@H]2O[C@H](COP(=O)([O-])OP(=O)(O)OC[C@H]3O[C@@H](n4cnc5c(N)ncnc54)[C@H](OP(=O)(O)O)[C@@H]3O)[C@@H](O)[C@H]2O)c1` [NADP+] here?
A: The value was “Approximately 45%”.

Q: What about the “τM:N+ (dwell of NADP+ events)” value (DHFRtag:MTX; −90 mV, NADP+ trans) of the same molecule?
A: Its value is 102 ± 11 ms.

Q: And the “koff −90 mV” value (DHFRtag:MTX; −90 mV, pH 7.5, 28° C.)?
A: The value was 10 ± 1 s⁻¹.

Q: And the “kon −90 mV” value (DHFRtag:MTX; −90 mV, pH 7.5, 28° C.)?
A: Its value is 2.1 ± 0.3 × 10^6 s^−1 M^−1.

Q: What about the “L2B ΔIRES %” value (DHFRtag:MTX; −90 mV, pH 7.5, 28° C., ligand trans, from L2) of the same molecule?
A: Its value is “+4.7 ± 0.9%”.

Q: `NC(=O)C[C@H](N)C(=O)O` [asparagine] was tested. Which Kd (SBD1) did it give?
A: Its Kd is 470 ± 30 nM.

Q: What about the kon (SBD1; pH 7.5, read-out: kclosing) of the same molecule?
A: The kon was 1.2e+07 M⁻¹ s⁻¹.

Q: What about the koff (SBD1; pH 7.5, read-out: kopening) of the same molecule?
A: Its koff is 9.4 s⁻¹.

B1: AlkB-Fe^++ (protein, UniProt P05050 1-216, looked up)
Alpha-ketoglutarate-dependent …: MLDLFADAEPWQEPLAAGAVILRRFAFNAAEQLIRDINDVASQSPFRQMVTPGGYTMSVAMTNCGHLGWTTHRQGYLYSPIDPQTNKPWPAMPQSFHNLCQRAATAAGYPDFQPDACLINRYAPGAKLSLHQDKDEPDLRAPIVSVSLGLPAIFQFGGLKRNDPLKRLLLEHGDVVVWGGESRLFYHGIQPLKAGFHPLTIDCRYNLTFRQAGKKE
modifications: Fe2+ bound
Q: Which results are given for B1?
A: AlkB-Fe++ blockades not showing ligand-induced transitions [1]: About 30%; time trapped inside the nanopore (Type I ClyA-AS nanopore): several minutes
